Article PMC6941357, “An in vitro toolbox to accelerate anti-malarial drug discovery and development” (Malaria Journal, 2020)
Several values for one entry are separate records, joined by “and”; a condition that tells them apart may be missing. Equal entries are not always repeated.

Tests used:
[1] = In vitro metabolism (metabolic stability) in human liver microsomes; conditions: human, microsomes, control compounds
Procedure: The metabolic stability assay was adapted from a previously published method. […] Reactions were quenched at 2, 5, 15, 30 and 60 min by the addition of acetonitrile containing 150 ng/mL diazepam as internal standard. Control samples (containing no cofactor) were included (quenched at 2, 30 and 60 min) to monitor degradation in the absence of cofactor. Concentrations were determined by LC–MS (Additional file 1: Table S2) by comparison to the response for a single point calibration standard prepared in quenched microsomal matrix.
Test compound concentration versus time data were fit using an exponential decay function to determine the first-order rate constant for substrate depletion. Where deviation from first-order kinetics was evident, only the initial linear portion of the logarithmic profile was utilized to determine the initial degradation rate constant (k, min^−1). Each substrate depletion rate constant was then used to calculate the in vitro intrinsic clearance value (CLint, in vitro, µL/min/mg protein) using Eq.
Unbound in vitro CLint values were obtained by dividing the measured CLint by the measured fu in microsomes.

human liver microsomes = conditions: microsomal protein 0.5 mg/mL; ref [23]–[28] of Additional file 1; cited from earlier work

Q: With `Cc1ncc2n1-c1ccc(Cl)cc1C(c1ccccc1F)=NC2` [midazolam] as the molecule, how does the microsomal CLint at 1 µM ([1]; pH 7.4, Mean CLint, mean (S.D.)) read?
A: 272 µL/min/mg

Q: What about the microsomal CLint at 1 µM ([1]; pH 7.4, Range HLM CLint, 6–21 independent measurements, 0.4 mg/mL) of the same molecule?
A: 240 to 300 µL/min/mg

Q: What about the “Literature CLint” value (human liver microsomes) of the same molecule?
A: 353 µL/min/mg and 178 µL/min/mg and 287 µL/min/mg
